Measured values reported in ChEMBL document CHEMBL2331414, “N-1, C-3 substituted indoles as 5-LOX inhibitors--in vitro enzyme immunoaasay, mass spectral and molecular docking investigations” (Bioorg Med Chem Lett, 2013).

Assays:
[1] = molecular target: T1, Polyunsaturated fatty acid 5-lipoxygenase (Homo sapiens, UniProt P09917); experiment: Inhibition of 5LOX (unknown origin) using arachidonic acid as substrate after 5 mins by spectrophotometric analysis
T1 sequence (P09917 whole entry): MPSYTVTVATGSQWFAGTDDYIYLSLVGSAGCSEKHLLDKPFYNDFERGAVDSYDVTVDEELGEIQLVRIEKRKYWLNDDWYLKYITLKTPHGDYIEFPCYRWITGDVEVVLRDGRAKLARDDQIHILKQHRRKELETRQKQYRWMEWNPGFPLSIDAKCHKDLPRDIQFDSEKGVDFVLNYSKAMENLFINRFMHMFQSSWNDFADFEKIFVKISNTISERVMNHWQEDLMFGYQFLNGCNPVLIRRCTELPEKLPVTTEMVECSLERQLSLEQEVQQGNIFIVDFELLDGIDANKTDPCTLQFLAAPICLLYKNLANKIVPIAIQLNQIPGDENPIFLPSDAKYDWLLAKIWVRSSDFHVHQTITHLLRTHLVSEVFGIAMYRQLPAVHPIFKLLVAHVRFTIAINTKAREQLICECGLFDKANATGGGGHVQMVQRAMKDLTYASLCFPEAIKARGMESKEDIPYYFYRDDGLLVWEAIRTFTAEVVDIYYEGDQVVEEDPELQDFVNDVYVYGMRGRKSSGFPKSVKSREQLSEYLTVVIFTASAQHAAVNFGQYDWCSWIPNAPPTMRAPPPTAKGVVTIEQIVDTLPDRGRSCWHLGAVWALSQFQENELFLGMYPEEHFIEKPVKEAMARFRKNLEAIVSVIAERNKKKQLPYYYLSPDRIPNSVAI

[2] = molecular target: T2, Polyunsaturated fatty acid 5-lipoxygenase (Homo sapiens) (UniProt P09917); experiment: Inhibition of 5LOX (unknown origin) using arachidonic acid as substrate at 0.01 uM after 5 mins by spectrophotometric analysis
T2 sequence (whole entry): T1 sequence (P09917 whole entry)

[3] = molecular target: T2, Polyunsaturated fatty acid 5-lipoxygenase (Homo sapiens); experiment: Inhibition of 5LOX (unknown origin) using arachidonic acid as substrate at 0.1 uM after 5 mins by spectrophotometric analysis
[4] = molecular target: T2, Polyunsaturated fatty acid 5-lipoxygenase (Homo sapiens); experiment: Inhibition of 5LOX (unknown origin) using arachidonic acid as substrate at 1 uM after 5 mins by spectrophotometric analysis
[5] = molecular target: T2, Polyunsaturated fatty acid 5-lipoxygenase (Homo sapiens); experiment: Inhibition of 5LOX (unknown origin) using arachidonic acid as substrate at 10 uM after 5 mins by spectrophotometric analysis

COc1ccc2c(c1)c(C(=O)C(=O)N1CCOCC1)cn2OS(=O)(=O)c1ccc(C)cc1
IC50 [1]: 1000 nM
inhibition [2]: 4.7%
inhibition [3]: 22%
inhibition [4]: 53.8%
inhibition [5]: 59.2%

O=C(C(=O)N1CCCC1)c1cn(C(=O)c2ccccc2)c2ccccc12
IC50 [1]: 1000 nM
inhibition [2]: 6.8%
inhibition [3]: 17.4%
inhibition [4]: 54.2%
inhibition [5]: 59.6%

COc1ccc2c(c1)c(C(=O)C(=O)N1CCCC1)cn2C(=O)/C=C/c1ccccc1
IC50 [1]: 1000 nM
inhibition [2]: 5.9%
inhibition [3]: 25.6%
inhibition [4]: 54.5%
inhibition [5]: 68.6%

Cc1ccc(S(=O)(=O)n2cc(C(=O)C(=O)N3CCCC3)c3ccccc32)cc1
IC50 [1]: 600 nM
inhibition [2]: 0.9%
inhibition [3]: 27.8%
inhibition [4]: 63.8%
inhibition [5]: 95.4%

O=C(C(=O)N1CCOCC1)c1cn(C(=O)/C=C/c2ccccc2)c2ccccc12
IC50 [1]: 5000 nM
inhibition [2]: 2.5%
inhibition [3]: 21.1%
inhibition [4]: 40.7%
inhibition [5]: 59.2%
